In one assay the target is T1, BRM (Homo sapiens, UniProt P51531).
T1 construct: made in house; host or cells: High Five insect cells
The assay can be described thus: ATPase catalytic activity of BRM, ADP-Glo in vitro biochemical assay. To be noted: ATPase catalytic activity, 30 nM BRM, 400 μM ATP, read-out: BRM IP50 (μM)*.

The target in a further assay is T2, BRG-1 (Homo sapiens, UniProt P51532).
T2 construct: made in house; host or cells: High Five insect cells
The assay can be described thus: ATPase catalytic activity of BRG-1, ADP-Glo in vitro biochemical assay. To be noted: ATPase catalytic activity, 30 nM BRG-1, 400 μM ATP, read-out: BRG1 IP50 (μM)*. On the technique in general: ADP-Glo turns the ADP formed in a reaction into a luminescent signal.

T1 sequence (P51531 whole entry): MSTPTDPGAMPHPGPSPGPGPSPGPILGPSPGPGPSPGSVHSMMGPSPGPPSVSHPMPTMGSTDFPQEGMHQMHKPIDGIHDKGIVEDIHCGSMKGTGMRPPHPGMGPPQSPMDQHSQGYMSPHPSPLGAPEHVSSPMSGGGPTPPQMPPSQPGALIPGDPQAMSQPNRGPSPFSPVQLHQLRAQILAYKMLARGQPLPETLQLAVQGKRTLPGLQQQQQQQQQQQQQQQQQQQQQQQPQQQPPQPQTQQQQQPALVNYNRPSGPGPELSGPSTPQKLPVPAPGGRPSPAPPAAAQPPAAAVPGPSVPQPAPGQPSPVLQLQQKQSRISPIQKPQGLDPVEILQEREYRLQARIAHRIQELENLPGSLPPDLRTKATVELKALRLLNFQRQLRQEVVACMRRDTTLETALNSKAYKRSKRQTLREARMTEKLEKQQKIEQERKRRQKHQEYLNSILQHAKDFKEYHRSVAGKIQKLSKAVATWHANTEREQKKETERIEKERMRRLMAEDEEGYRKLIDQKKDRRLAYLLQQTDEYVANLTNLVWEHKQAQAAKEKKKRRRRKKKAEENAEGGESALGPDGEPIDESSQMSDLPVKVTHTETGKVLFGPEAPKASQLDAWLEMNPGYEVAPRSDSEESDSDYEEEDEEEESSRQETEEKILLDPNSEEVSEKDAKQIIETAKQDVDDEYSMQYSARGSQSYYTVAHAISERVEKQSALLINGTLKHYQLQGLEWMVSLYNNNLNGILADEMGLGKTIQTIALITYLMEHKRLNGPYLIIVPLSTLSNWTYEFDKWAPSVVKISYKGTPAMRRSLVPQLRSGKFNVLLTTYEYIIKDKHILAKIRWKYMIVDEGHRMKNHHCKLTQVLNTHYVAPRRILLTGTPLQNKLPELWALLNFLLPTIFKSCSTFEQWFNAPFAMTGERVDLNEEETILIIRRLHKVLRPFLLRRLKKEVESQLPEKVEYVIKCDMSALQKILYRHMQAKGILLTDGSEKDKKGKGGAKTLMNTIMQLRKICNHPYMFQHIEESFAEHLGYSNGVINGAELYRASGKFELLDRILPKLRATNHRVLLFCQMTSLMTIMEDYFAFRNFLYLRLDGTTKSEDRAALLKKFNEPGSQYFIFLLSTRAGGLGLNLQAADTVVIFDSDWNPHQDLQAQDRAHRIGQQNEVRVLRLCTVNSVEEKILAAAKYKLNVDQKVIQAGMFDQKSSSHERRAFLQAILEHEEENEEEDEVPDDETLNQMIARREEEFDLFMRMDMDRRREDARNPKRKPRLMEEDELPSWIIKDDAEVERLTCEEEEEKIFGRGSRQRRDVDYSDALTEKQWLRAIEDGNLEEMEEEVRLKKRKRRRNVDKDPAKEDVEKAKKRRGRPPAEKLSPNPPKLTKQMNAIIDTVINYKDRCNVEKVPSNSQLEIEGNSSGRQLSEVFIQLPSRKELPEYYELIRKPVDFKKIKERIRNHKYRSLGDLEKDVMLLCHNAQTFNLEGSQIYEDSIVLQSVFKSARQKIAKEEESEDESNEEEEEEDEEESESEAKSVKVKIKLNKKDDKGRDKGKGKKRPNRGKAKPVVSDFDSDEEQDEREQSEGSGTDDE
T2 sequence (P51532 whole entry): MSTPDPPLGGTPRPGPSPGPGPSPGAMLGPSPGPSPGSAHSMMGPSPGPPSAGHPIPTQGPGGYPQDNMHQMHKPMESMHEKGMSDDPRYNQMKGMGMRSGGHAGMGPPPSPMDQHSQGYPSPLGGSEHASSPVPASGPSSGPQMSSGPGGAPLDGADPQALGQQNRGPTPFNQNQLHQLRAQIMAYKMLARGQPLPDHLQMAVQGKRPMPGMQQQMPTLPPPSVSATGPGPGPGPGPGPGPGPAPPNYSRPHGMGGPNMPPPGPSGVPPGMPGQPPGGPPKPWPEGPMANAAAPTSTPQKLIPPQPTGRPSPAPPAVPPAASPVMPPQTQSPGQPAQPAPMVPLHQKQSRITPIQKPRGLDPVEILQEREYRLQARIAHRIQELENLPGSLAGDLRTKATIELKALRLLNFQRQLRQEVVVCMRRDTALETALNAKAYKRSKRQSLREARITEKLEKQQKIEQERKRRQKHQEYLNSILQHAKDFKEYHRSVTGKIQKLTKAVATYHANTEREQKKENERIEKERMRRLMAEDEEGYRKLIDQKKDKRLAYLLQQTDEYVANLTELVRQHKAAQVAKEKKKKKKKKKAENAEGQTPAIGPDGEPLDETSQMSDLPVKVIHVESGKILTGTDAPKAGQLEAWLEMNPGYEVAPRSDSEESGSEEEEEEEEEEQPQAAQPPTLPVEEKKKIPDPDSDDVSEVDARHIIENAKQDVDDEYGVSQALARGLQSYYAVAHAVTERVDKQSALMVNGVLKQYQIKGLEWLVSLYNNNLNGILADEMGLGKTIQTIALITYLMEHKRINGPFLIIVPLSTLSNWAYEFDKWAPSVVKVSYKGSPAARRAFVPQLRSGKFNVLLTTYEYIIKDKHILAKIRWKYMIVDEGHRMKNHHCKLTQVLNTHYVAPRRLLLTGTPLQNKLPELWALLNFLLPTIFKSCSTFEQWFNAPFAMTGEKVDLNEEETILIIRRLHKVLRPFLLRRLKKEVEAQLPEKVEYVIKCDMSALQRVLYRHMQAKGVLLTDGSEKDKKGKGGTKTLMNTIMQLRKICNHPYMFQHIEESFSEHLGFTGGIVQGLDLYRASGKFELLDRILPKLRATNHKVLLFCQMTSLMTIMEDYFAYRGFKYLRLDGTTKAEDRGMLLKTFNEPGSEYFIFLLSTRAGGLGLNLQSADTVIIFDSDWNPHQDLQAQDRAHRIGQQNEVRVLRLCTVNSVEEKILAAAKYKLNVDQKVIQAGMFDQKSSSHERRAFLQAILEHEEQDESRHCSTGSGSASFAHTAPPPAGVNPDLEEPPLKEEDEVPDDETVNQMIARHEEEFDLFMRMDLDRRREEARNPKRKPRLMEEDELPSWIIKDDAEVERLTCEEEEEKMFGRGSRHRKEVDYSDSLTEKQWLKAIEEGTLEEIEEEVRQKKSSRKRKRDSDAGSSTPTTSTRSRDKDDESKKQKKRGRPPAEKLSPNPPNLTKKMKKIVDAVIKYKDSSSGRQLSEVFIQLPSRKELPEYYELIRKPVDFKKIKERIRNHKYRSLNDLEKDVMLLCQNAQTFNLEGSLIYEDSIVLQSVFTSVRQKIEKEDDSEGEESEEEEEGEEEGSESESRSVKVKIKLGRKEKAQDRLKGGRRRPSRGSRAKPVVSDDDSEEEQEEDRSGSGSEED

Regarding `Cn1cnc(-c2cccc(-c3csc(NC(=O)CNC(=O)c4ccn(S(C)(=O)=O)c4)n3)c2)c1` [Compound 18, N-(2-((4-(3-(1-methyl-1H-imidazol-4-yl)phenyl)thiazol-2-yl)amino)-2-oxoethyl)-1-(methylsulfonyl)-1H-pyrrole-3-carboxamide], the IC50 at BRM and at BRG-1 was more than 0.01 µM each time.

Regarding `CN1CCN(c2cc(-c3cccc(-c4csc(NC(=O)CNC(=O)c5ccn(S(C)(=O)=O)c5)n4)c3)ccn2)CC1` [Compound 19, N-(2-((4-(3-(2-(4-methylpiperazin-1-yl)pyridin-4-yl)phenyl)thiazol-2-yl)amino)-2-oxoethyl)-1-(methylsulfonyl)-1H-pyrrole-3-carboxamide], the IC50 on BRM and on BRG-1 was more than 0.01 µM throughout.

On to `CN(C)CCNc1cc(-c2cccc(-c3csc(NC(=O)CNC(=O)c4ccn(S(C)(=O)=O)c4)n3)c2)ccn1` [Compound 20, N-(2-((4-(3-(2-((2-(dimethylamino)ethyl)amino)pyridin-4-yl)phenyl)thiazol-2-yl)amino)-2-oxoethyl)-1-(methylsulfonyl)-1H-pyrrole-3-carboxamide], for which the IC50 at BRM and at BRG-1 was more than 0.01 µM in each case.

For the compound `CN(C)CCN(C)c1cc(-c2cccc(-c3csc(NC(=O)CNC(=O)c4ccn(S(C)(=O)=O)c4)n3)c2)ccn1` [Compound 21, N-(2-((4-(3-(2-((2-(dimethylamino)ethyl)(methyl)amino)pyridin-4-yl)phenyl)thiazol-2-yl)amino)-2-oxoethyl)-1-(methylsulfonyl)-1H-pyrrole-3-carboxamide], the IC50 on BRM and on BRG-1 was more than 0.01 µM in each case.

Take `Cc1cc(-c2cccc(-c3csc(NC(=O)CNC(=O)c4ccn(C(C)(C)C)c4)n3)c2)ncn1` [Compound 22, 1-(tert-butyl)-N-(2-((4-(3-(6-methylpyrimidin-4-yl)phenyl)thiazol-2-yl)amino)-2-oxoethyl)-1H-pyrrole-3-carboxamide]: the IC50 on BRM and at BRG-1 was less than 0.01 µM each time.

Regarding `Cc1nccc(-c2cccc(-c3csc(NC(=O)CNC(=O)c4ccn(C(C)(C)C)c4)n3)c2)n1` [Compound 23, 1-(tert-butyl)-N-(2-((4-(3-(2-methylpyrimidin-4-yl)phenyl)thiazol-2-yl)amino)-2-oxoethyl)-1H-pyrrole-3-carboxamide], the IC50 at BRM and at BRG-1 was less than 0.01 µM in each case.

For `CC(C)(C)n1ccc(C(=O)NCC(=O)Nc2nc(-c3cccc(-c4ccnc(CN)c4)c3)cs2)c1` [Compound 24, N-(2-((4-(3-(2-(aminomethyl)pyridin-4-yl)phenyl)thiazol-2-yl)amino)-2-oxoethyl)-1-(tert-butyl)-1H-pyrrole-3-carboxamide], the IC50 on BRM and on BRG-1 was more than 0.01 µM throughout.

Turning to `COC(C)(C)Cn1ccc(-c2cccc(-c3csc(NC(=O)CNC(=O)c4ccn(C(C)(C)C)c4)n3)c2)n1` [Compound 25, 1-(tert-butyl)-N-(2-((4-(3-(1-(2-methoxy-2-methylpropyl)-1H-pyrazol-3-yl)phenyl)thiazol-2-yl)amino)-2-oxoethyl)-1H-pyrrole-3-carboxamide], the values for the IC50 at BRM and on BRG-1 were more than 0.01 µM and more than 0.1 µM, respectively.

For `Cn1nc(-c2cccc(-c3csc(NC(=O)CNC(=O)c4ccn(C(C)(C)C)c4)n3)c2)cc1CO` [Compound 26, 1-(tert-butyl)-N-(2-((4-(3-(5-(hydroxymethyl)-1-methyl-1H-pyrazol-3-yl)phenyl)thiazol-2-yl)amino)-2-oxoethyl)-1H-pyrrole-3-carboxamide], the IC50 on BRM and on BRG-1 was more than 0.01 µM each time.

On to `COCC(C)(C)n1ccc(C(=O)NCC(=O)Nc2nc(-c3cccc(-c4ccn(C)n4)c3)cs2)c1` [Compound 27, 1-(1-methoxy-2-methylpropan-2-yl)-N-(2-((4-(3-(1-methyl-1H-pyrazol-3-yl)phenyl)thiazol-2-yl)amino)-2-oxoethyl)-1H-pyrrole-3-carboxamide], for which the IC50 was more than 0.1 µM at BRM and more than 1 µM at BRG-1.

Consider `Cn1ccc(-c2cccc(-c3csc(NC(=O)CNC(=O)c4ccn(CC(C)(C)O)c4)n3)c2)n1` [Compound 28, 1-(2-hydroxy-2-methylpropyl)-N-(2-((4-(3-(1-methyl-1H-pyrazol-3-yl)phenyl)thiazol-2-yl)amino)-2-oxoethyl)-1H-pyrrole-3-carboxamide], for which the IC50 on BRM and on BRG-1 was more than 1 µM in each case.

Take `COC(C)(C)Cn1ccc(C(=O)NCC(=O)Nc2nc(-c3cccc(-c4ccn(C)n4)c3)cs2)c1` [Compound 29, 1-(2-methoxy-2-methylpropyl)-N-(2-((4-(3-(1-methyl-1H-pyrazol-3-yl)phenyl)thiazol-2-yl)amino)-2-oxoethyl)-1H-pyrrole-3-carboxamide]: the IC50 at BRM and on BRG-1 was more than 1 µM each time.

Take `Cn1ccc(-c2cccc(-c3csc(NC(=O)CNC(=O)c4ccn(C(C)(C)CO)c4)n3)c2)n1` [Compound 30, 1-(1-hydroxy-2-methylpropan-2-yl)-N-(2-((4-(3-(1-methyl-1H-pyrazol-3-yl)phenyl)thiazol-2-yl)amino)-2-oxoethyl)-1H-pyrrole-3-carboxamide]: the IC50 at BRM and on BRG-1 was more than 0.01 µM each time.

In the case of `Cn1cncc1C(=O)NCC(=O)Nc1nc(-c2cccc(C#N)c2)cs1` [Compound 31, N-(2-((4-(3-cyanophenyl)thiazol-2-yl)amino)-2-oxoethyl)-1-methyl-1H-imidazole-5-carboxamide], the IC50 on BRM and at BRG-1 was more than 1 µM each time.

Turning to `Cn1nccc1C(=O)NCC(=O)Nc1nc(-c2cccc(C#N)c2)cs1` [Compound 32, N-(2-((4-(3-cyanophenyl)thiazol-2-yl)amino)-2-oxoethyl)-1-methyl-1H-pyrazole-5-carboxamide], the IC50 at BRM and at BRG-1 was more than 1 µM each time.

Consider `CS(=O)(=O)n1ccc(C(=O)NCC(=O)Nc2nc(-c3cccc(C#N)c3)cs2)c1` [Compound 33, N-(2-((4-(3-cyanophenyl)thiazol-2-yl)amino)-2-oxoethyl)-1-(methylsulfonyl)-1H-pyrrole-3-carboxamide], for which the IC50 at BRM and on BRG-1 was more than 0.01 µM in each case.

Consider `CC(C)(C#N)n1ccc(C(=O)NCC(=O)Nc2nc(-c3cccc(C#N)c3)cs2)c1` [Compound 34, N-(2-((4-(3-cyanophenyl)thiazol-2-yl)amino)-2-oxoethyl)-1-(2-cyanopropan-2-yl)-1H-pyrrole-3-carboxamide], for which the IC50 at BRM was more than 0.01 µM; at BRG-1 it was more than 0.1 µM.

Consider `CC(C)(C)n1ccc(C(=O)NCC(=O)Nc2nc(-c3cccc(C#N)c3)cs2)c1` [Compound 35, 1-(tert-butyl)-N-(2-((4-(3-cyanophenyl)thiazol-2-yl)amino)-2-oxoethyl)-1H-pyrrole-3-carboxamide], for which the IC50 on BRM and on BRG-1 was more than 0.1 µM in each case.

Regarding `CC(C)(C)n1ccc(C(=O)NCC(=O)Nc2nc(-c3cccc(C#N)c3)cs2)n1` [Compound 36, 1-(tert-butyl)-N-(2-((4-(3-cyanophenyl)thiazol-2-yl)amino)-2-oxoethyl)-1H-pyrazole-3-carboxamide], the IC50 on BRM and on BRG-1 was more than 0.1 µM throughout.

For the compound `CC(C)(C)n1cc(C(=O)NCC(=O)Nc2nc(-c3cccc(C#N)c3)cs2)cn1` [Compound 37, 1-(tert-butyl)-N-(2-((4-(3-cyanophenyl)thiazol-2-yl)amino)-2-oxoethyl)-1H-pyrazole-4-carboxamide], the IC50 at BRM and at BRG-1 was more than 1 µM each time.

As to `NCCn1ccc(C(=O)NCC(=O)Nc2nc(-c3cccc(-c4ccncc4)c3)cs2)c1` [Compound 38, 1-(2-aminoethyl)-N-(2-oxo-2-((4-(3-(pyridin-4-yl)phenyl)thiazol-2-yl)amino)ethyl)-1H-pyrrole-3-carboxamide], the IC50 at BRM and at BRG-1 was more than 0.1 µM in each case.

Take `O=C(CNC(=O)c1ccn(C2CCNCC2)c1)Nc1nc(-c2cccc(-c3ccncc3)c2)cs1` [Compound 39, N-(2-oxo-2-((4-(3-(pyridin-4-yl)phenyl)thiazol-2-yl)amino)ethyl)-1-(piperidin-4-yl)-1H-pyrrole-3-carboxamide]: the IC50 on BRM and at BRG-1 was more than 1 µM throughout.

`NCCS(=O)(=O)n1ccc(C(=O)NCC(=O)Nc2nc(-c3cccc(-c4ccncc4)c3)cs2)c1` [Compound 40, 1-((2-aminoethyl)sulfonyl)-N-(2-oxo-2-((4-(3-(pyridin-4-yl)phenyl)thiazol-2-yl)amino)ethyl)-1H-pyrrole-3-carboxamide]: the IC50 on BRM and on BRG-1 was more than 0.01 µM in each case.

With `CC(C)(C)n1ccc(C(=O)NCC(=O)Nc2nc(-c3cccc(-c4ccncc4)c3)cs2)c1` [Compound 41, 1-(tert-butyl)-N-(2-oxo-2-((4-(3-(pyridin-4-yl)phenyl)thiazol-2-yl)amino)ethyl)-1H-pyrrole-3-carboxamide], the values for the IC50 on BRM and on BRG-1 were less than 0.01 µM and more than 0.01 µM, respectively.

With `CC(C)(CN)n1ccc(C(=O)NCC(=O)Nc2nc(-c3cccc(-c4ccncc4)c3)cs2)c1` [Compound 42, 1-(1-amino-2-methylpropan-2-yl)-N-(2-oxo-2-((4-(3-(pyridin-4-yl)phenyl)thiazol-2-yl)amino)ethyl)-1H-pyrrole-3-carboxamide], the IC50 was more than 0.01 µM at BRM and more than 0.1 µM at BRG-1.

As for `CC(C)S(=O)(=O)n1ccc(C(=O)NCC(=O)Nc2nc(-c3cccc(-c4ccncc4)c3)cs2)c1` [Compound 43, 1-isopropylsulfonyl-N-[2-oxo-2-[[4-[3-(4-pyridyl)phenyl]thiazol-2-yl]amino]ethyl]pyrrole-3-carboxamide], the IC50 on BRM and at BRG-1 was more than 0.01 µM in each case.

Turning to `CS(=O)(=O)n1cc(C(=O)NCC(=O)Nc2nc(-c3cccc(-c4ccncc4)c3)cs2)cn1` [Compound 44, 1-(methylsulfonyl)-N-(2-oxo-2-((4-(3-(pyridin-4-yl)phenyl)thiazol-2-yl)amino)ethyl)-1H-pyrazole-4-carboxamide], the IC50 on BRM was more than 0.01 µM; on BRG-1, more than 0.1 µM.

For the origin of these results see US20230079819A1, “COMPOUNDS AND USES THEREOF” (Foghorn Therapeutics Inc., priority 2019, published 2023).
